Source: US12240825B2, “Oxexin 1 receptor antagonists” (Heptares Therapeutics Limited, priority 2019, dated 2025)

Experiments:
[1] = target: T1, Human OX1 receptor (Homo sapiens (Human), UniProt O43613); experiment: [3H]-radioligand binding assay, OX1; details: competition binding, membranes of SF21 cells, Ki by Cheng-Prusoff
Description: (§1) Cloning, Baculovirus generation, large-scale infection of SF21 cells and membrane preparation. Human OX1 or OX2 receptor were cloned into Invitrogen's (ThermoFisher Scientific, UK) Bac-to-Bac Baculovirus Expression System. P0 baculovirus was generated by transfecting SF9 cells with bacmid DNA using Cellfectin® II transfection reagent (ThermoFisher Scientific, UK, Catalog number 10362-100). Following P0 generation P1 virus was then generated ready for large scale infection and membrane preparation. SF21 cells were grown in expression medium ESF921 (Expression Systems, USA, catalog number 96-001-01) supplemented with 10% heat-inactivated FBS and 1% Pen/Strep and were infected at a cell density of 2.5×10^6 cells/mL and a multiplicity of infection of 1.0 for both human OX1R and OX2R. Incubation was carried out at over 48 h in a shaking incubator set at 27° C. The cell culture was then centrifuged at 2,500 rcf for 10 min at 4° C. The pellets were resuspended in cold PBS supplemented with Roche's Complete EDTA-free protease inhibitor cocktail tablets (Roche Applied Sciences, catalog number 05056489001), 1 mM PMSF and 1 mM EDTA. The resuspended cell paste was then centrifuged at 3,273 rcf for 12 min at 4° C. The supernatant was discarded and the pellet frozen at −80° C. The cell pellet from a 4 L culture was resuspended in buffer containing 50 mM HEPES pH 7.5, 150 mM NaCl, 8 Roche EDTA-Free protease inhibitor cocktail tablets and 1 mM PMSF. The suspension was left stirring at rt for 1 h and then homogenised for 90 s at 9,500 rpm using a VDI 25 (VWR, USA) homogeniser. The cells were then lysed using a Microfluidiser processor M-110L Pneumatic (Microfluidics, USA) at 60 PSI and membranes collected by ultracentrifugation at 204.7 k×g for 1 h. The supernatant was discarded and the pellet was resuspended and homogenised in 90 s at 9,500 rpm in 50 mL (25 mL for each 2 L culture) of buffer containing 50 mM Hepes pH 7.5, 150 mM NaCl, 3 Roche EDTA-free protease inhibitor cocktail tablets and 1 mM PMSF. The resulting membranes were then stored at −80° C.
(§2) [^3H]-radioligand binding assay. After thawing, membrane homogenates were resuspended in the binding buffer (8.5 mM HEPES, pH 7.4, 1.3 mM CaCl2, 1.2 mM MgSO4, 118 mM NaCl, 4.7 mM KCl, 4 mM NaHCO3, 1.2 mM KH2PO4, 11 mM glucose) to a final assay concentration of 6.4 μg (OX1) or 1.4 μg (OX2) protein per well. Saturation isotherms were determined by the addition of various concentrations (0-30 nM) of [^3H]-4-(2,6-difluoro-4-methoxybenzyl)-2-(5,6-dimethoxypyridin-3-yl)-2H-1,2,4-benzothiadiazin-3(4H)-one 1,1-dioxide (Christopher et al, MedChemComm., 2015, 6, 947-955) in a total reaction volume of 250 μL for 90 min at rt. At the end of the incubation, membranes were filtered onto a 96-well GF/B filter pre-incubated with 0.5% polyethylenimine, with a Tomtec cell harvester and washed 5 times with 0.5 mL distilled water. Non-specific binding (NSB) was measured in the presence of 3.33 μM [4-(5-chloro-1,3-benzoxazol-2-yl)-7-methyl-1,4-diazepan-1-yl][5-methyl-2-(2H-1,2,3-triazol-2-yl)phenyl]methanone (Wertz et al, Angew. Chem. Int. Ed., 2011, 50, 11511-11515). Radioactivity on the filter was counted (1 min) on a Microbeta radiometric plate counter (Perkin Elmer) after addition of 50 μL of scintillation fluid (LabLogic: Part #SG-BXX-14). […] IC50 values were derived from the inhibition curve and the equilibrium dissociation constant (Ki) values were calculated using the Cheng-Prusoff equation.

[2] = target: T2, Human OX2 receptor (Homo sapiens (Human), UniProt O43614); experiment: [3H]-radioligand binding assay, OX2; details: competition binding, membranes of SF21 cells, Ki by Cheng-Prusoff
T2 sequence (O43614 whole entry): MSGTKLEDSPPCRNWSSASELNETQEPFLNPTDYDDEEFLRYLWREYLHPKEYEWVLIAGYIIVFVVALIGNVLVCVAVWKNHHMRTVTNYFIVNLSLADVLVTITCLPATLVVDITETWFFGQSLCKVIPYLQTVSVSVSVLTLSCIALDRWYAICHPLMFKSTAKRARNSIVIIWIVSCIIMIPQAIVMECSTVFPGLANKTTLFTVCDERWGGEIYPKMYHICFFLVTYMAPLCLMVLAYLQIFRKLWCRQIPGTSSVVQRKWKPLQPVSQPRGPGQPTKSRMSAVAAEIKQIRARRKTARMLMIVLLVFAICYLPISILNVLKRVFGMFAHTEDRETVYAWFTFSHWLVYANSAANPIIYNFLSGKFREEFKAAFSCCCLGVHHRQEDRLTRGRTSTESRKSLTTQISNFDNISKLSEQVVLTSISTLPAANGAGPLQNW
Description: as §1, §2

[3] = target: T1, Human OX1 receptor; experiment: IPone accumulation assay, CHO cells expressing OX1; type: cell-based; details: antagonism of orexin A (EC80 ~20 nM)-induced inositol phosphate turnover, read-out: fpKb average OX1 (converted)
Procedure: Generation of CHO stable cell lines expressing the human OX1R and OX2R. Stable cell lines for the human OX1R and OX2R receptors were generated through the transfection of CHO cells using the transfection reagent Genejuice (Novagen number 70967) and cDNA coding for either the human OX1R or OX2R. Cells were cultured in Sigma Nutrient Mixture F-12 Ham media (catalog number N6658) supplemented with 10% heat-inactivated FBS. Forty-eight hours after transfection, cells were harvested and placed under geneticin selection by culturing in Sigma Nutrient Mixture F-12 Ham media supplemented with 10% heat-inactivated FBS and geneticin (ThermoFisher Catalog number: 10131035). Selection of the final stable clone for each receptor was made on the basis of receptor expression, assay signal to noise and robustness though increasing passage. Selected clones for the human OX1R and OX2R were then frozen down into liquid nitrogen using Cell Freezing Medium-DMSO (Sigma-Aldrich catalog number: C6164).
(§3) IPone accumulation assay. A CHO cell line stably expressing either human OX1 or OX2 receptor was used with the IPone HTRF assay kit (CisBio: Part #62IPAPEJ) to measure receptor activation. The assay was optimised to measure the ability (potency; fpKb) of antagonists to reduce agonist (orexin A)-induced inositol phosphate turnover. Briefly, cells were plated onto half area 96-well white walled plates at a density of 12,500 cells/well. Sixteen hours post-plating cell growth media was replaced with antagonist concentration-response curve diluted in stimulation buffer (supplied with the kit). Cells were incubated in a humidified incubator (37° C.) for 30 min before an EC80 challenge concentration (˜20 nM (OX1) and 40 nM (OX2)) of orexin A (Tocris catalogue number 1455). After 30 min stimulation in a humidified incubator (37° C.) the assay was terminated by the addition of detection mixture as per manufacturer's instructions. The concentration of compound which reduced orexin-A stimulated turnover of inositol phosphates by 50% (IC50) was calculated by fitting to a four parameter sigmoidal dose response curve. The IC50 values were converted to fpKB values using the orexin A pEC50 value estimated on each plate as well as the challenge concentration interpolated from the orexin A control curve.

[4] = target: T2, Human OX2 receptor; experiment: IPone accumulation assay, CHO cells expressing OX2; type: cell-based; details: antagonism of orexin A (EC80 40 nM)-induced inositol phosphate turnover, read-out: fpKb average OX2 (converted)
Procedure: as §3, with “Generation of CHO stable cell lines expressing the human OX1R and OX2R. Stable cell lines for the human OX1R and OX2R receptors were generated through the transfection of CHO cells using the transfection reagent Genejuice (Novagen number 70967) and cDNA coding for either the human OX1R or OX2R. Cells were cultured in Sigma Nutrient Mixture F-12 Ham media (catalog number N6658) supplemented with 10% heat-inactivated FBS. Forty-eight hours after transfection, cells were harvested and placed under geneticin selection by culturing in Sigma Nutrient Mixture F-12 Ham media supplemented with 10% heat-inactivated FBS and geneticin (ThermoFisher Catalog number: 10131035). Selection of the final stable clone for each receptor was made on the basis of receptor expression, assay signal to noise and robustness though increasing passage. Selected clones for the human OX1R and OX2R were then frozen down into liquid nitrogen using Cell Freezing Medium-DMSO (Sigma-Aldrich catalog number: C6164). IPone accumulation” for “IPone accumulation”, “(CisBio: Part #62[…]) to measure” for “(CisBio: Part #62IPAPEJ) to measure”, “challenge concentration ( 20 nM (OX1)” for “challenge concentration (˜20 nM (OX1)”

T1 sequence (O43613 whole entry): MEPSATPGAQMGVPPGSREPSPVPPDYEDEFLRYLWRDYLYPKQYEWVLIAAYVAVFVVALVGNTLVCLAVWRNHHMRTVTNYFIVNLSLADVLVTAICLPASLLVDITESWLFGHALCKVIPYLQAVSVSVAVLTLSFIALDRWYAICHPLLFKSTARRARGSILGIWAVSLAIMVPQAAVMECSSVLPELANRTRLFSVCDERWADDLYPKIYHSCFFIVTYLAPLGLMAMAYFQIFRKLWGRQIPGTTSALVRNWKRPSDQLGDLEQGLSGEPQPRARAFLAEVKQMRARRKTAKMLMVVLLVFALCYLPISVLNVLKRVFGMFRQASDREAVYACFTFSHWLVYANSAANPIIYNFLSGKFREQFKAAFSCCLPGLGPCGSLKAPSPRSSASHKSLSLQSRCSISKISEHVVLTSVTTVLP

SMILES | pKi average OX1 [1] | pKi average OX2 [2] | Kb [3] | Kb [4]
CC(=O)Nc1ccc(-n2nccn2)c(C(=O)N(C)[C@H]2CCC[C@@H]2COc2ccc(F)cc2)n1 [Example 5, 6-acetamido-N-[(1S,2S)-2-[(4-fluorophenoxy)methyl]cyclopentyl]-N-methyl-3-(triazol-2-yl)pyridine-2-carboxamide] | 8.5 | 6.0 | 3.16 nM | > 1000 nM
CC(=O)Nc1cc(C(=O)N[C@H]2CCC[C@@H]2COc2ccc(F)cc2)c(-c2ncccn2)cn1 [Example 24, 2-acetamido-N-[(1S,2S)-2-[(4-fluorophenoxy)methyl]cyclopentyl]-5-pyrimidin-2-yl-pyridine-4-carboxamide] | 8.3 | 6.6 | 1.26 nM | > 398 nM
[2H]C([2H])(Oc1ccc(F)cc1)[C@H]1CCC[C@@H]1NC(=O)c1nc(NC(C)=O)ccc1-n1nccn1 [Example 8, 6-acetamido-N-[(1S,2S)-2-[dideuterio-(4-fluorophenoxy)methyl]cyclopentyl]-3-(triazol-2-yl)pyridine-2-carboxamide] | 8.4 | 5.8 | 15.8 nM | > 794 nM
O=C(N[C@H]1CCC[C@@H]1COc1ccc(F)cc1)c1nc(NC(=O)C(F)F)ccc1-n1nccn1 [Example 11, 6-[(2,2-difluoroacetyl)amino]-N-[(1S,2S)-2-[(4-fluorophenoxy)methyl]cyclopentyl]-3-(triazol-2-yl)pyridine-2-carboxamide] | 7.9 | <5.8 | 31.6 nM | > 1000 nM
O=C(N[C@H]1CCC[C@@H]1COc1ccc(F)cc1)c1nc(NCCO)ccc1-n1nccn1 [Example 20, N-[(1S,2S)-2-[(4-fluorophenoxy)methyl]cyclopentyl]-6-(2-hydroxyethylamino)-3-(triazol-2-yl)pyridine-2-carboxamide] | 8.4 | 5.8 | 7.94 nM | > 501 nM
Nc1ccc(-c2ncc(F)cn2)c(C(=O)N[C@H]2CCC[C@@H]2COc2ccc(F)cc2)n1 [Example 22, 6-amino-N-[(1S,2S)-2-[(4-fluorophenoxy)methyl]cyclopentyl]-3-(5-fluoropyrimidin-2-yl)pyridine-2-carboxamide] | 8.5 | 6.3 | 7.94 nM | > 1000 nM
CC(=O)Nc1cc(F)c(-n2nccn2)c(C(=O)N[C@H]2CCC[C@@H]2COc2ccc(F)cc2)c1 [Example 1, 5-acetamido-3-fluoro-N-[(1S,2S)-2-[(4-fluorophenoxy)methyl]cyclopentyl]-2-(triazol-2-yl)benzamide] | 9.0 | 7.3 | 0.794 nM | > 63.1 nM
CC(=O)Nc1ccc(-c2ncccn2)c(C(=O)N(C)[C@H]2CCC[C@@H]2COc2ccc(F)cc2)n1 [Example 18, 6-acetamido-N-[(1S,2S)-2-[(4-fluorophenoxy)methyl]cyclopentyl]-N-methyl-3-pyrimidin-2-yl-pyridine-2-carboxamide] | 8.6 | 6.8 | 0.631 nM | > 501 nM
CC(=O)Nc1ccc(-n2nccn2)c(C(=O)N(C(C)C)[C@H]2CCC[C@@H]2COc2ccc(F)cc2)n1 [Example 7, 6-acetamido-N-[(1S,2S)-2-[(4-fluorophenoxy)methyl]cyclopentyl]-N-isopropyl-3-(triazol-2-yl)pyridine-2-carboxamide] | 8.1 | <5.3 | 25.1 nM | > 794 nM
CC(=O)Nc1ccc(-n2nccn2)c(C(=O)N[C@H]2CCC[C@@H]2COc2ccc(F)c(F)c2)n1 [Example 9, 6-acetamido-N-[(1S,2S)-2-[(3,4-difluorophenoxy)methyl]cyclopentyl]-3-(triazol-2-yl)pyridine-2-carboxamide] | 8.2 | 5.9 | 25.1 nM | > 200 nM
CC(=O)Nc1ccc(-n2nccn2)c(C(=O)N[C@H]2CCC[C@@H]2COc2ccc(F)cc2F)n1 [Example 17, 6-acetamido-N-[(1S,2S)-2-[(2,4-difluorophenoxy)methyl]cyclopentyl]-3-(triazol-2-yl)pyridine-2-carboxamide] | 9.1 | 5.4 | 50.1 nM | > 63.1 nM
